pIC50: −log10 of the molar value. Where two headings read alike, the source gives them in different places. Each block holds one compound with its values, some of them ahead of it.
How the values were obtained:
OCI-AML3 = test: MTS cell proliferation assay, OCI-AML3; format: cell-based; conditions: Homo sapiens
Description: (§1) Triplicate wells were set up for each condition.
(§2) The assays were carried out in a blinded fashion.

MOLM-13 = test: MTS cell proliferation assay, MOLM-13; format: cell-based; conditions: Homo sapiens, 96 hours
Description: as §1, §2

THP1 = test: MTS cell proliferation assay, THP1; format: cell-based; conditions: Homo sapiens, THP-1, 96 hours
Description: as §1, §2

HL-60 = test: MTS cell proliferation assay, HL-60; format: cell-based; conditions: Homo sapiens, 96 hours
Description: as §1, §2

MV4-11 = test: MTS cell proliferation assay, MV4-11; format: cell-based; conditions: for IC50: Homo sapiens, MV4-11, MTS
DHODH = target: T1, DHODH (Homo sapiens, UniProt Q02127); test: DHODH enzymatic assay (DCIP reduction); format: biochemical; conditions: for DHODH inhibition, % inhibition: compound concentration not given; for pIC50: range in parentheses, read-out: DHODH inhibition, IC50
T1 construct: made in house
T1 sequence (Q02127 whole entry): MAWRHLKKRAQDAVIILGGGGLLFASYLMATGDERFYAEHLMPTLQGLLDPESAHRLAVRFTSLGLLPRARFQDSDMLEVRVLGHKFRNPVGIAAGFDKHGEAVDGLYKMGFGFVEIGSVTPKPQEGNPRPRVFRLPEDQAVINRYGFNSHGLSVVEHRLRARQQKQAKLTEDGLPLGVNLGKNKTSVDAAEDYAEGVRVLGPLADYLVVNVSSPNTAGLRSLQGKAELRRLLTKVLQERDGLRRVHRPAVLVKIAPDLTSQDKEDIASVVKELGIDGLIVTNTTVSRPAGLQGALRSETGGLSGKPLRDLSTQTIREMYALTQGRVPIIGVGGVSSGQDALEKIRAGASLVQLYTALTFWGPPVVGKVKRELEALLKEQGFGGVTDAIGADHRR
Description: DHODH Enzymatic Assay: DHODH activity was determined at 25° C. following the reduction of 2,6-dichloroindophenol sodium salt (DCIP) at 600 nm (ε=18 800 M^−1 cm^−1) on a spectrophotometer. The reaction medium used contained 50 mM Tris-HCl, pH 8.0, 0.1% Triton X-100, 0.1 mM LDHO, 0.025 mM CoQ1, and 0.06 mM DCIP. The reaction was started by addition of the enzyme. The inhibitory potency of the compounds was evaluated by measuring the initial velocity of the reaction either in the absence or in the presence of the compounds at the indicated concentrations. The DHODH enzyme used was the recombinant human enzyme prepared as previously described (Helene Munier-Lehmann, et al., J. Med. Chem. 2015, 58:860-877).

[1] = OCI-AML-3, 96 hours, read-out: IC50 (μM) at 96 hours, OCI-AML3
[2] = 96 hours, read-out: IC50 (μM) at 96 hours, MV4-11
[3] = OCI-AML-3, 96 hour, Table 6, read-out: 96 hour IC50 (nM) in OCI-AML-3 cell line
[4] = 96 hour, Table 7, read-out: 96 hour IC50 (nM) in MV-411 cell line

IC50 (MV4-11; [4]): 0.69 µM
Compound: COc1ccc(-c2ccc(-c3cc(C(=O)O)c4cc(F)ccc4n3)cc2)cc1 [Cpd20, 6-fluoro-2-(4′-methoxy-[1,1′-biphenyl]-4-yl)quinoline-4-carboxylic acid]

IC50 (MV4-11; [4]): 0.06 µM
Compound: CCCOc1ccc(-c2ccc(-c3cc(C(=O)O)c4cc(F)ccc4n3)cc2)cc1 [Cpd21, 6-fluoro-2-(4′-propoxy-[1,1′-biphenyl]-4-yl)quinoline-4-carboxylic acid]

IC50 (OCI-AML3; [3]): 0.0906 µM
IC50 (MV4-11; [4]): 0.018 µM
Compound: CCCCCCCOc1ccc(-c2ccc(-c3cc(C(=O)O)c4cc(F)ccc4n3)cc2)cc1 [Cpd23, 6-fluoro-2-(4′-(heptyloxy)-[1,1′-biphenyl]-4-yl)quinoline-4-carboxylic acid]

IC50 (OCI-AML3; [3]): 0.0676 µM
Compound: CC(C)Oc1ccc(-c2ccc(-c3cc(C(=O)O)c4cc(F)ccc4n3)cc2)cc1 [Cpd25, 6-fluoro-2-(4′-isopropoxy-[1,1′-biphenyl]-4-yl)quinoline-4-carboxylic acid]

IC50 (OCI-AML3; [3]): 0.0209 µM
Compound: CCOc1cccc(-c2ccc(-c3cc(C(=O)O)c4cc(F)ccc4n3)cc2)c1 [Cpd28, 2-(3′-ethoxy-[1,1′-biphenyl]-4-yl)-6-fluoroquinoline-4-carboxylic acid]

IC50 (OCI-AML3; [3]): 0.0729 µM
Compound: CCCCCOc1ccc(-c2ccc(-c3cc(C(=O)O)c4cc(F)ccc4n3)cc2)cc1 [Cpd29, 6-fluoro-2-(4′-(pentyloxy)-[1,1′-biphenyl]-4-yl)quinoline-4-carboxylic acid]

IC50 (OCI-AML3; [3]): 0.0761 µM
Compound: CCCCCCOc1ccc(-c2ccc(-c3cc(C(=O)O)c4cc(F)ccc4n3)cc2)cc1 [Cpd30, 6-fluoro-2-(4′-(hexyloxy)-[1,1′-biphenyl]-4-yl)quinoline-4-carboxylic acid]

IC50 (OCI-AML3; [3]): 0.175 µM
Compound: CCCCCCCCOc1ccc(-c2ccc(-c3cc(C(=O)O)c4cc(F)ccc4n3)cc2)cc1 [Cpd31, 6-fluoro-2-(4′-(octyloxy)-[1,1′-biphenyl]-4-yl)quinoline-4-carboxylic acid]

IC50 (OCI-AML3; [3]): 0.0746 µM
Compound: CC(C)CCOc1ccc(-c2ccc(-c3cc(C(=O)O)c4cc(F)ccc4n3)cc2)cc1 [Cpd33, 6-fluoro-2-(4′-(isopentyloxy)-[1,1′-biphenyl]-4-yl)quinoline-4-carboxylic acid]

IC50 (OCI-AML3; [3]): 0.33 µM
Compound: CCOc1ccc(-c2ccc(-c3cc(C(=O)O)c4cc(C(F)(F)F)ccc4n3)cc2)cc1 [Cpd36, 2-(4′-ethoxy-[1,1′-biphenyl]-4-yl)-6-(trifluoromethyl)quinoline-4-carboxylic acid]

IC50 (OCI-AML3; [3]): 1.06 µM
Compound: COCc1ccc(-c2ccc(-c3cc(C(=O)O)c4cc(F)ccc4n3)cc2)cc1 [Cpd38, 6-fluoro-2-(4′-(methoxymethyl)-[1,1′-biphenyl]-4-yl)quinoline-4-carboxylic acid]

The remaining lines, values behind:

Compound: CC1=C(/C=C/C(C)=C/C=C/C(C)=C/C(=O)O)C(C)(C)CCC1 [ATRA, all-trans-retinoic acid, reference compound]
IC50 (OCI-AML3; [1]): 0.09 µM
IC50 (MOLM-13): 3.06 µM

Compound: Cc1c(-c2ccc(-c3ccccc3F)cc2)nc2ccc(F)cc2c1C(=O)O [BQR•Na, reference compound]
IC50 (OCI-AML3; [1]): 0.4 µM
IC50 (MOLM-13): 0.48 µM
IC50 (THP1): 1 µM
IC50 (HL-60): 0.23 µM
IC50 (MV4-11; [2]): 0.49 µM

Compound: Cc1c(-c2ccc(-c3ccccc3F)cc2)nc2ccc(F)cc2c1C(=O)O [Brequinar, 6-fluoro-2-(2′-fluoro-1,1′-biphenyl-4-yl)-3-methyl-4-quinolinecarboxylic acid, reference compound]
IC50 (OCI-AML3; [3]): 0.314 µM
rescue of cytotoxic effects by uridine (MV4-11; 0.25 or 0.5 μM compound, uridine 0 to 200 μM, 96 hours): rescued by growth in the presence of uridine

Compound: COc1ccc(-c2ccc(-c3cc(C(=O)O)c4cc(Cl)ccc4n3)cc2)cc1 [Cpd5, 6-chloro-2-(4′-methoxy-[1,1′-biphenyl]-4-yl)quinoline-4-carboxylic acid]
IC50 (OCI-AML3; [1]): 3.37 µM
IC50 (MOLM-13): 3.02 µM
IC50 (THP1): 7.84 µM
DHODH inhibition, % inhibition (DHODH): 95%
pIC50 (DHODH): 7.00
IC50 (HL-60): 20.9 µM
IC50 (MV4-11; [2]): 6.96 µM

Compound: O=C(O)c1cc(-c2ccc(-c3ccc(F)cc3)cc2)nc2ccc(Cl)cc12 [Cpd6, 6-chloro-2-(4′-fluoro-[1,1′-biphenyl]-4-yl)quinoline-4-carboxylic acid]
IC50 (OCI-AML3; [1]): 6.25 µM
IC50 (MOLM-13): 6.91 µM
IC50 (THP1): 10.4 µM
DHODH inhibition, % inhibition (DHODH): 99%
pIC50 (DHODH): 7.12
IC50 (HL-60): 3 µM
IC50 (MV4-11; [2]): 6.48 µM

Compound: COc1ccc(-c2ccc(-c3cc(C(=O)O)c4cccc(F)c4n3)cc2)cc1 [Cpd8, 8-fluoro-2-(4′-methoxy-[1,1′-biphenyl]-4-yl)quinoline-4-carboxylic acid]
IC50 (OCI-AML3; [1]): 4.99 µM
IC50 (MOLM-13): 6.76 µM
IC50 (THP1): 11.6 µM
IC50 (HL-60): 3.57 µM
IC50 (MV4-11; [2]): 7.54 µM

Compound: Cc1c(-c2ccc(-c3ccc(F)cc3F)cc2)nc2c(F)cccc2c1C(=O)O [Cpd14, 2-(2′,4′-difluoro-[1,1′-biphenyl]-4-yl)-8-fluoro-3-methylquinoline-4-carboxylic acid]
IC50 (OCI-AML3; [1]): 11.2 µM
IC50 (MOLM-13): 8.63 µM
IC50 (THP1): 21.4 µM
IC50 (HL-60): 9.48 µM
IC50 (MV4-11; [2]): 14 µM

Compound: CCOc1ccc(-c2ccc(-c3cc(C(=O)O)c4cccc(F)c4n3)cc2)cc1 [Cpd16, 2-(4′-ethoxy-[1,1′-biphenyl]-4-yl)-8-fluoroquinoline-4-carboxylic acid]
IC50 (OCI-AML3; [1]): 2.9 µM
IC50 (MOLM-13): 3.42 µM
IC50 (THP1): 6.7 µM
IC50 (HL-60): 1.69 µM
IC50 (MV4-11; [2]): 6.23 µM

Compound: O=C(O)c1cc(-c2ccc(-c3ccc(C(F)(F)F)cc3)cc2)nc2ccc(-c3ccc(F)cc3)cc12 [Cpd17, 6-(4-fluorophenyl)-2-(4′-(trifluoromethyl)-[1,1′-biphenyl]-4-yl)quinoline-4-carboxylic acid]
DHODH inhibition, % inhibition (DHODH): 8%

Compound: Cc1c(-c2ccc(-c3ccc(F)cc3)cc2)nc2ccc(F)cc2c1C(=O)O [Cpd18, 6-fluoro-2-(4′-fluoro-[1,1′-biphenyl]-4-yl)-3-methylquinoline-4-carboxylic acid]
IC50 (OCI-AML3; [1]): 4.01 µM
IC50 (MOLM-13): 6.76 µM
IC50 (THP1): 9.34 µM
IC50 (HL-60): 2.4 µM
IC50 (MV4-11; [2]): 6.86 µM

Compound: CCCCOc1ccc(-c2ccc(-c3cc(C(=O)O)c4cc(F)ccc4n3)cc2)cc1 [Cpd22, 2-(4′-butoxy-[1,1′-biphenyl]-4-yl)-6-fluoroquinoline-4-carboxylic acid]
IC50 (OCI-AML3; [3]): 0.155 µM
IC50 (MV4-11; [4]): 0.036 µM

Compound: O=C(O)c1cc(-c2ccc(-c3ccccc3F)cc2)nc2ccc(F)cc12 [Cpd24, 6-fluoro-2-(2'-fluoro-[1,1′-biphenyl]-4-yl)quinoline-4-carboxylic acid]
IC50 (OCI-AML3; [3]): 0.0495 µM

Compound: CC(C)COc1ccc(-c2ccc(-c3cc(C(=O)O)c4cc(F)ccc4n3)cc2)cc1 [Cpd26, 6-fluoro-2-(4′-isobutoxy-[1,1′-biphenyl]-4-yl)quinoline-4-carboxylic acid]
IC50 (OCI-AML3; [3]): 0.0893 µM

Compound: CCOc1ccccc1-c1ccc(-c2cc(C(=O)O)c3cc(F)ccc3n2)cc1 [Cpd27, 2-(2′-ethoxy-[1,1′-biphenyl]-4-yl)-6-fluoroquinoline-4-carboxylic acid]
IC50 (OCI-AML3; [3]): 0.637 µM

Compound: CC(C)(C)Oc1ccc(-c2ccc(-c3cc(C(=O)O)c4cc(F)ccc4n3)cc2)cc1 [Cpd32, 2-(4′-(tert-butoxy)-[1,1′-biphenyl]-4-yl)-6-fluoroquinoline-4-carboxylic acid]
IC50 (OCI-AML3; [3]): 0.0503 µM

Compound: CCOc1ccc(-c2ccc(-c3cc(C(=O)O)c4cc(F)ccc4n3)cc2)c(F)c1 [Cpd35, 2-(4′-ethoxy-2′-fluoro-[1,1′-biphenyl]-4-yl)-6-fluoroquinoline-4-carboxylic acid]
IC50 (OCI-AML3; [3]): 0.0877 µM

Compound: COCc1cccc(-c2ccc(-c3cc(C(=O)O)c4cc(F)ccc4n3)cc2)c1 [Cpd37, 6-fluoro-2-(3′-(methoxymethyl)-[1,1′-biphenyl]-4-yl)quinoline-4-carboxylic acid]
IC50 (OCI-AML3; [3]): 0.864 µM

Compound: COCc1ccccc1-c1ccc(-c2cc(C(=O)O)c3cc(F)ccc3n2)cc1 [Cpd39, 6-fluoro-2-(2'-(methoxymethyl)-[1,1′-biphenyl]-4-yl) quinoline-4-carboxylic acid]
IC50 (OCI-AML3; [3]): 0.0964 µM

Compound: O=C(O)c1cc(-c2ccc(-c3ccc(Oc4ccccc4)cc3)cc2)nc2ccc(F)cc12 [Cpd40, 6-fluoro-2-(4′-phenoxy-[1,1′-biphenyl]-4-yl)quinoline-4-carboxylic acid]
IC50 (MV4-11; [4]): 0.067 µM

Reference: patent publication US11999697B2, “Methods and compositions for inhibition of dihydroorotate dehydrogenase” (OHIO STATE INNOVATION FOUNDATION, priority 2018, dated 2024)
